Measured values taken from patent US20240190876A1, “Tricyclic Urea Compounds As JAK2 V617F Inhibitors” (Incyte Corporation, priority 2022, published 2024).

How the values were obtained:
[1] = target: T1, pseudo-kinase domain (JH2) of human V617F mutant JAK2 (Homo sapiens, UniProt O60674, F794H/V617F/W659A/W777A); assay: JAK2 LanthaScreen JH2-V617F Binding Assay; settings: 50 nM JAK2-JH2 tracer, 1 hour at 25° C., read-out: JH2 V617F Bind IC50
T1 construct: pseudo-kinase domain (JH2, amino-acids 536-812 with 3 surface mutations W659A, W777A, F794H); His (C); purchased BPS Bioscience 79498; host or cells: baculovirus expression system
T1 sequence (O60674 536-812 V617F/W659A/W777A/F794H): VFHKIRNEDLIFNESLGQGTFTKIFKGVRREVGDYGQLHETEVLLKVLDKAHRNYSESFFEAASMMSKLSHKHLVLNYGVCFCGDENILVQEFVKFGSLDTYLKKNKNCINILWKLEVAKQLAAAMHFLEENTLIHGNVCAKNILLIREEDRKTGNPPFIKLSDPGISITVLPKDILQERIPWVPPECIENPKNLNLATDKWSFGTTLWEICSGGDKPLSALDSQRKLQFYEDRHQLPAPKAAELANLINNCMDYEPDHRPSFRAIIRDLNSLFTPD
Method: JAK2 JH2-V617F binding assay utilizes pseudo-kinase domain (JH2, amino-acids 536-812 with 3 surface mutations W659A, W777A, F794H) of human V617F mutant JAK2 expressed as C-terminal His-Avi-tagged, biotinylated protein in a baculovirus expression system (BPS Bioscience, Catalog #79498). The assay was conducted in black 384-well polystyrene plates in a final reaction volume of 20 μL. JAK2 JH2-V617F (0.26 nM) was incubated with compounds (100 nL serially diluted in DMSO) in the presence of 50 nM Fluorescent JAK2-JH2 Tracer (MedChem Express Catalog #HY-102055) and 0.25 nM Streptavidin-Tb cryptate (Cisbio Part #610SATLB) in assay buffer (50 mM Tris, pH=7.5, 10 mM MgCl2, 0.01% Brij-35, 0.1% BSA, 1 mM EGTA, 5% Glycerol and 5 mM DTT). Non-specific binding was accessed in the presence of 2 mM ATP. After incubation for 1 hour at 25° C., LanthaScreen signals were read on a PHERAstar FS plate reader (BMG LABTECH). Data was analyzed with IDBS XLfit and GraphPad Prism 5.0 software using a four parameter dose response curve to determine IC50 for each compound.

[2] = target: T2, catalytic domain (JH1) of human JAK2 (Homo sapiens, UniProt O60674); assay: JAK2 LanthaScreen JH1 Binding Assay; settings: 50 nM JAK2-JH1 tracer, 2 hours at 25° C., read-out: JH1 Bind IC50
T2 construct: catalytic domain (JH1, amino acids 826-1132) of human JAK2; FLAG (N); purchased Carna Biosciences 08-445-20N; host or cells: baculovirus expression system
T2 sequence (O60674 826-1132): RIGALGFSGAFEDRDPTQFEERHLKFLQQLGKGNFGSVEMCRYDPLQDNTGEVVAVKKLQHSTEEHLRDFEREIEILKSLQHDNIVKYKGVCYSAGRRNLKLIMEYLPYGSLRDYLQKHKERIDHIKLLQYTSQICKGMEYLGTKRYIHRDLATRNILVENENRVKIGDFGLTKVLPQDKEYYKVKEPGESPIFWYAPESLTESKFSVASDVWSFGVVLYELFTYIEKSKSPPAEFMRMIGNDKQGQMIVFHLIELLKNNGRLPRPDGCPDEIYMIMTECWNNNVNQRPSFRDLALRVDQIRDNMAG
Method: JAK2 JH1 binding assay utilizes catalytic domain (JH1, amino acids 826-1132) of human JAK2 expressed as N-terminal FLAG-tagged, biotinylated protein in a baculovirus expression system (Carna Biosciences, Product #08-445-20N). The assay was conducted in black 384-well polystyrene plates in a final reaction volume of 20 μL. JAK2 JH1 (1.5 nM) was incubated with compounds (100 nL serially diluted in DMSO) in the presence of 50 nM fluorescent JAK2-JH1 tracer and 0.5 nM Streptavidin-Tb cryptate (Cisbio Part #610SATLB) in assay buffer (50 mM Tris, pH=7.5, 10 mM MgCl2, 0.01% Brij-35, 0.1% BSA, 1 mM EGTA, 5% Glycerol and 5 mM DTT). Non-specific binding was accessed in the presence of 2 mM ATP. After incubation for 2 hours at 25° C., LanthaScreen signals were read on a PHERAstar FS plate reader (BMG LABTECH). Data was analyzed with IDBS XLfit and GraphPad Prism 5.0 software using a four parameter dose response curve to determine IC50 for each compound.

KIT [3] = target: KIT (Homo sapiens, UniProt P10721); assay: KIT Enzymatic Assay; assay type: biochemical; settings: HTRF kinase assay, 1 mM ATP
Chain of KIT (Homo sapiens, UniProt P10721) (P10721 26-976, species assumed): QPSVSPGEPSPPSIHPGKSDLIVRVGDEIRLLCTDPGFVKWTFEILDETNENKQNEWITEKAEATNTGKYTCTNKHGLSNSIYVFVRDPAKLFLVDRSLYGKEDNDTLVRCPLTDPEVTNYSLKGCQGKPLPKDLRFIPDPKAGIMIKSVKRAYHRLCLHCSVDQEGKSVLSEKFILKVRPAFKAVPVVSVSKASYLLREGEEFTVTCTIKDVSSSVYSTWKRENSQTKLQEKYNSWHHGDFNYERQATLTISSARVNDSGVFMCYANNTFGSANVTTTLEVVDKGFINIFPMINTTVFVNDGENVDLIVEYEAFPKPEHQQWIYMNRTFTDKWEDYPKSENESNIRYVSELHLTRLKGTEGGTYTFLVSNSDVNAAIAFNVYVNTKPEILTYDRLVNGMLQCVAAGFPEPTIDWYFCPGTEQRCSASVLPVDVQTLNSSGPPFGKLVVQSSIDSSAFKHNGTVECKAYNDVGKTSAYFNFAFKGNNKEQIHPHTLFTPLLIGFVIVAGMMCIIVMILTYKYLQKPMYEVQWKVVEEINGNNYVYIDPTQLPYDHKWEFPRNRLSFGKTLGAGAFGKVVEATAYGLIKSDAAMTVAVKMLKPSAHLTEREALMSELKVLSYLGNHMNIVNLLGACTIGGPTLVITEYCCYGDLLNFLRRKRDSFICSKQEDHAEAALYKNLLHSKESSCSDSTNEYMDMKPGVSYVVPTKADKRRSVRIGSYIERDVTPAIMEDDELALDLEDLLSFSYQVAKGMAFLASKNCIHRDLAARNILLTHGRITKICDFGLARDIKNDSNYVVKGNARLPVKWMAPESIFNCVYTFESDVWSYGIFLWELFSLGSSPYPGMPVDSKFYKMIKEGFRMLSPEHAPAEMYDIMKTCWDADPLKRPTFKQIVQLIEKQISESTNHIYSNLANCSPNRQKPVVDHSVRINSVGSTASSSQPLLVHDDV
Method: (§1) The kinase assays were carried out at room temperature in assay buffer (HEPES 50 mM, pH 7.0, NaN3 0.02%, BSA 0.01%, Orthovanadate 0.1 mM, DTT 1 mM, MgCl2 10 mM) in a final volume of 10 μL. Testing compounds were prepared by serial dilution in DMSO and transferred to the plate wells by ECHO liquid handler (Labcyte) with 0.5% DMSO in the final assay. […]. Reactions were initiated by the addition of 5 μL ATP in assay buffer. The final 10 μL kinase reaction consists of 0.12 nM KIT, 1 mM ATP, 500 nM TK Substrate-biotin and SEB reagent 62.5 nM in assay buffer. […] The plates were then sealed and centrifuged at 1800 rpm for 2 minutes. After 60 minutes incubation at room temperature, the product activity was determined by measuring the fluorescence at 620 nm and 665 nm on Pherastar microplate reader (BMG Labtech). A ratio is calculated (665/620 nm) for each well. Wells with DMSO only were served as the positive controls and wells containing no ATP were used as negative controls. IC50 determination was performed by fitting the curve of percent control activity versus the log of the compound concentration using the GraphPad Prism 7.0 software.

KIT [4] = assay: KIT Enzymatic Assay; assay type: biochemical; settings: ratio KIT IC50 / JH2 V617F binding IC50
Method: as §1

[5] = In Vitro Intrinsic Clearance; assay type: in vitro ADME; settings: human liver microsomes, 1 μM compound, NADPH, scaled to human
Method: For in vitro metabolic stability experiments, test compounds were incubated with human liver microsomes at 37° C. The incubation mixture contained test compounds (1 μM), NADPH (2 mM), and human liver microsomes ([…]) in 100 mM phosphate buffer (pH 7.4). The mixture was pre-incubated for 2 min at 37° C. before the addition of NADPH. Reactions were commenced upon the addition of NADPH and quenched with ice-cold methanol at 0, 10, 20, and 30 min. Terminated incubation mixtures were analyzed using LC-MS/MS system. The analytical system consisted of a Shimadzu LC-30AD binary pump system and SIL-30AC autosampler (Shimadzu Scientific Instruments, Columbia, MD) coupled with a Sciex Triple Quad 6500+mass spectrometer from Applied Biosystems (Foster City, CA). […] Mobile phase A consisted of 0.1% formic acid in water, and mobile phase B consisted of 0.1% formic acid in acetonirile. The total LC-MS/MS runtime was 2.75 minutes with a flow rate of 0.75 mL/min. Peak area integrations and peak area ratio calculations were performed using Analyst software (version 1.6.3) from Applied Biosystems.
The in vitro intrinsic clearance, CLint, in vitro, was calculated from the t1/2 of test compound disappearance as CLint, in vitro=(0.693/t1/2)×(1/Cprotein), where Cprotein is the protein concentration during the incubation, and t1/2 was determined by the slope (k) of the log-linear regression analysis of the concentration versus time profiles; thus, t1/2ln2/k. The CLint, in vitro values were scaled to the in vivo values for human by using physiologically based scaling factors, hepatic microsomal protein concentrations (45 mg protein/g liver), and liver weights (21 g/kg body weight). The equation CLint=CLint, in vitro×(mg protein/g liver weight)×(g liver weight/kg body weight) was used. The in vivo hepatic clearance (CLH) was then calculated by using CLint and hepatic blood flow, Q (20 mL·min^−1kg^−1 in humans) in the well-stirred liver model disregarding all binding from CLH (Q×CLint)/(Q+CLint). The hepatic extraction ratio was calculated as CLH divided by Q.

Structure (SMILES) | IC50 [1] | IC50 [2] | IC50 (KIT [3]) | Selectivity KIT/JH2 V617F (KIT [4]) | h-IntCL [5]
COc1ccc(-c2c(-c3cn(C)nc3OC)[nH]c3ncc4c(c23)n([C@H]2CC[C@@](C)(NC(=O)C3CC3)CC2)c(=O)n4C)cc1 [Example 1, N-((1s,4s)-4-(7-(3-Methoxy-1-methyl-1H-pyrazol-4-yl)-8-(4-methoxyphenyl)-3-methyl-2-oxo-3,6-dihydroimidazo[4,5-d]pyrrolo[2,3-b]pyridin-1(2H)-yl)-1-methylcyclohexyl)cyclopropanecarboxamide] | ≤ 10 nM | > 1000 nM | > 2500 nM | ****** (****** refers to selectivity of >12500-fold) | ‡ (‡ refers to h-IntCL of <0.7 L/h/kg)
[2H]C([2H])([2H])n1ncc2cc(-c3c(-c4cn(C)nc4OC)[nH]c4ncc5c(c34)n([C@H]3CC[C@@](C)(NC(=O)C4CC4)CC3)c(=O)n5C)ccc21 [Example 2, N-((1s,4s)-4-(7-(3-Methoxy-1-methyl-1H-pyrazol-4-yl)-3-methyl-8-(1-(methyl-d3)-1H-indazol-5-yl)-2-oxo-3,6-dihydroimidazo[4,5-d]pyrrolo[2,3-b]pyridin-1(2H)-yl)-1-methylcyclohexyl)cyclopropanecarboxamide] | ≤ 10 nM | > 1000 nM | > 2500 nM | ****** (****** refers to selectivity of >12500-fold) | ‡ (‡ refers to h-IntCL of <0.7 L/h/kg)
[2H]C([2H])([2H])n1cc(-c2[nH]c3ncc4c(c3c2-c2ccc(OC)cc2)n([C@H]2CC[C@@](C)(NC(=O)C3CC3)CC2)c(=O)n4C)c(F)n1 [Example 3, N-((1s,4s)-4-(7-(3-fluoro-1-(methyl-d3)-1H-pyrazol-4-yl)-8-(4-methoxyphenyl)-3-methyl-2-oxo-3,6-dihydroimidazo[4,5-d]pyrrolo[2,3-b]pyridin-1(2H)-yl)-1-methylcyclohexyl)cyclopropanecarboxamide] | ≤ 10 nM | > 1000 nM | 250 to 1250 nM | **** (**** refers to selectivity of >1750-fold to ≤5000-fold) | ‡ ‡ (‡ ‡ refers to h-IntCL of ≥0.7 L/h/kg to ≤1 L/h/kg)
[2H]C([2H])([2H])n1cc(-c2[nH]c3ncc4c(c3c2-c2ccc3c(cnn3C([2H])([2H])[2H])c2)n([C@H]2CC[C@@](C)(NC(=O)C3CC3)CC2)c(=O)n4C)c(F)n1 [Example 4, N-((1s,4s)-4-(7-(3-fluoro-1-(methyl-d3)-1H-pyrazol-4-yl)-3-methyl-8-(1-(methyl-d3)-1H-indazol-5-yl)-2-oxo-3,6-dihydroimidazo[4,5-d]pyrrolo[2,3-b]pyridin-1(2H)-yl)-1-methylcyclohexyl)cyclopropanecarboxamide] | ≤ 10 nM | > 1000 nM | 250 to 1250 nM | **** (**** refers to selectivity of >1750-fold to ≤5000-fold) | ‡ (‡ refers to h-IntCL of <0.7 L/h/kg)
[2H]C([2H])([2H])n1ncc2cc(-c3c(-c4cn(CC)nc4F)[nH]c4ncc5c(c34)n([C@H]3CC[C@@](C)(NC(=O)C4CC4)CC3)c(=O)n5C)ccc21 [Example 5, N-((1s,4s)-4-(7-(1-Ethyl-3-fluoro-1H-pyrazol-4-yl)-3-methyl-8-(1-(methyl-d3)-1H-indazol-5-yl)-2-oxo-3,6-dihydroimidazo[4,5-d]pyrrolo[2,3-b]pyridin-1(2H)-yl)-1-methylcyclohexyl)cyclopropanecarboxamide] | ≤ 10 nM | > 1000 nM | 250 to 1250 nM | **** (**** refers to selectivity of >1750-fold to ≤5000-fold) | ‡ (‡ refers to h-IntCL of <0.7 L/h/kg)
[2H]C([2H])([2H])n1cc(-c2[nH]c3ncc4c(c3c2-c2ccc(OC)cc2)n([C@H]2CC[C@@](C)(NC(=O)[C@H]3C[C@H]3F)CC2)c(=O)n4C([2H])([2H])[2H])c(F)n1 [Example 6, (1R,2R)-2-Fluoro-N-((1s,4S)-4-(7-(3-fluoro-1-(methyl-d3)-1H-pyrazol-4-yl)-8-(4-methoxyphenyl)-3-(methyl-d3)-2-oxo-3,6-dihydroimidazo[4,5-d]pyrrolo[2,3-b]pyridin-1(2H)-yl)-1-methylcyclohexyl)cyclopropane-1-carboxamide] | ≤ 10 nM | > 1000 nM | 250 to 1250 nM | ***** (***** refers to selectivity of >5000-fold to ≤12500-fold) | ‡ (‡ refers to h-IntCL of <0.7 L/h/kg)
